Data: patent US20070173488A1, “Pyrazolothiazole Protein Kinase Modulators” (SGX Pharmaceuticals, Inc., priority 2005, published 2007)

Legend:
T315I Ba/F3 = molecular target: T1, T315I Ba/F3 (Homo sapiens, UniProt P00519, T315I, cells depend on it, form not given); assay: 96-well XTT cell survival assay (Ba/F3 cells); assay type: cell-based; settings: 72 hours, read-out: T315I Ba/F3 XTT IC50
T1 construct: The candidate is BCR (P11274) N-terminal part, as in Bcr-Abl p210 or p185
Procedure: Ba/F3 cells were maintained in RPMI 1640 supplemented with 10% FBS, penicillin/streptomycin and 5 ng/ml recombinant mouse IL-3.
(§1) Compounds were tested in the following assays in duplicate.
96-well XTT assay (Ba/F3 cells): Cells were grown in growth media containing various concentrations of compounds (duplicates) on a 96-well plate for 72 hours at 37° C. The starting cell number was 5000-8000 cells per well and volume was 120 μl. At the end of the 72-hour incubation, 40 μl of XTT labeling mixture (50:1 solution of sodium 3′-[1-(phenylamino-carbonyl)-3,4-tetrazolium]-bis (4-methoxy-6-nitro) benzene sulfonic acid hydrate and Electron-coupling reagent: PMS (N-methyl dibenzopyrazine methyl sulfate) were added to each well of the plate. After an additional 2-6 hours of incubation at 37° C., the absorbance reading at 405 nm with background correction at 650 nm was measured with a spectrophotometer.

Met = Met (Homo sapiens, UniProt P08581); assay: Met phosphorylation assay in GTL16 cells; assay type: cell-based; design: endogenous in cells; host or cells: GTL16 cells; settings: compound 1 hour, anti-Phospho-Met (Tyr1234/1235), read-out: Met Phosp.
Procedure: GTL16 cells were maintained in DMEM Medium supplemented with 10% fetal bovine serum (FBS) 2 mM L-Glutamine and 100 units penicillin/100 μg streptomycin, at 37° C. in 5% CO2.
as §1
Met phosphorylation assay: GTL16 cells were plated out at […] cells per 60×15 mm dish (Falcon) in 3 mL of assay media. The following day compound at various concentrations were added in assay media and incubated for 1 hour at 37° C. 5% CO2. After 1 hour the media was aspirated, and the cells were washed once with 1×PBS. The PBS was aspirated and the cells were harvested in 100 μL of modified RIPA lysis buffer (Tris.Cl pH 7.4, 1% NP-40, 5 mM EDTA, 5 mM NaPP, 5 mM NaF, 150 mM NaCl, Protease inhibitor cocktail (Sigma), 1 mM PMSF, 2 mM NaVO4) and transferred to a 1.7 mL eppendorf tube and incubated on ice for 15 minutes. After lysis, the tubes were centrifuged (10 minutes, 14,000 g, 4° C.). Lysates were then transferred to a fresh eppendorf tube. The samples were diluted 1:2 (250,000 cells/tube) with 2×SDS PAGE loading buffer and heated for 5 minutes at 98° C. The lysates were separated on a NuPage 4-12% Bis-Tris Gel 1.0 mm×12 well (Invitrogen), at 200V, 400 mA for approximately 40 minutes. The samples were then transferred to a 0.45 micron Nitrocellulose membrane Filter Paper Sandwich (Invitrogen) for 1 hour at 75V, 400 mA. After transferring, the membranes were placed in blocking buffer for 1 hour at room temperature with gentle rocking. The blocking buffer was removed and a 1:500 dilution of anti-Phospho-Met (Tyr1234/1235) antibody (Cell Signaling Technologies Cat. # 3126L) in 5% BSA, 0.05% Tween 20 in 1×PBS was added and the blots were incubated overnight at room temperature. The following day the blots were washed three times with 1×PBS, 0.1% Tween20. A 1:3000 dilution of HRP conjugated goat anti-rabbit antibody (Jackson ImmunoResearch Laboratories Cat. # 111-035-003) in blocking buffer, was added and incubated for 1 hr at room temperature with gentle rocking. The blot was wash 3 times in PBS, 0.1% Tween20 and visualized by chemiluminescence with SuperSignal West Pico Chemiluminescent Substrate (Pierce #34078).

Met, sequence (P08581 25-1390): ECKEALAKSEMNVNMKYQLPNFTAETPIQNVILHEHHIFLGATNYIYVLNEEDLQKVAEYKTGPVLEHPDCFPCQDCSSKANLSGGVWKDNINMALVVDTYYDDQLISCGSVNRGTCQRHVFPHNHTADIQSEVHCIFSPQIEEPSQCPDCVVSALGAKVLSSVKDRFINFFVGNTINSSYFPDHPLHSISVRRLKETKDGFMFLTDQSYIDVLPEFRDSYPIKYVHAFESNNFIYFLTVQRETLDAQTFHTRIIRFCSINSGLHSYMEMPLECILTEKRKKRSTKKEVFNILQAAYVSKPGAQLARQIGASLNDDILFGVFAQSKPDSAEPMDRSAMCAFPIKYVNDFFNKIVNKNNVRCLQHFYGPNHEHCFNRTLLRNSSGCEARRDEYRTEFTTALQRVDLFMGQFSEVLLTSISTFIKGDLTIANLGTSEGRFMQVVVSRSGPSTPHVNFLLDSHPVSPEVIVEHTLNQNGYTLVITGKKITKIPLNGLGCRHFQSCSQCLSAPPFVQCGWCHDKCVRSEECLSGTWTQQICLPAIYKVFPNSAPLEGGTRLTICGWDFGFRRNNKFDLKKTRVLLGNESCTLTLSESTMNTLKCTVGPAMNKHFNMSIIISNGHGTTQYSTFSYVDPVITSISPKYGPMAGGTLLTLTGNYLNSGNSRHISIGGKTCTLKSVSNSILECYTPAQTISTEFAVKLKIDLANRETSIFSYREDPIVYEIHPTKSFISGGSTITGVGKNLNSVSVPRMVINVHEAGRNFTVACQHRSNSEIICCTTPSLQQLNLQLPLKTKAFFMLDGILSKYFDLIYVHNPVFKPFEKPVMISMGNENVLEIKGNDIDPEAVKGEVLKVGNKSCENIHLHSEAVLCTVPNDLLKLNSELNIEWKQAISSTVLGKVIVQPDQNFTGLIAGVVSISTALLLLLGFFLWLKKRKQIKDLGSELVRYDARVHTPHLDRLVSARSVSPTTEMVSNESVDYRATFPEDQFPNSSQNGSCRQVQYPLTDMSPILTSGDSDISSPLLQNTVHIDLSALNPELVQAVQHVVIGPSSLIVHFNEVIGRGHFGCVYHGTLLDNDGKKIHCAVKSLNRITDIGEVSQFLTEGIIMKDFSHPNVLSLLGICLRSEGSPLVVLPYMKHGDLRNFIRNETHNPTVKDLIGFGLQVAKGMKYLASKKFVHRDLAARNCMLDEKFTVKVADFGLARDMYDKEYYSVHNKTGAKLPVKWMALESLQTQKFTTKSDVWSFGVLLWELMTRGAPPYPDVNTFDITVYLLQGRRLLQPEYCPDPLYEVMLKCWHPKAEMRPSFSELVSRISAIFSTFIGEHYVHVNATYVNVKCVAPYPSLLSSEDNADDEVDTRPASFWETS

SMILES	IC50 (Met) [µM]	GI50 (T315I Ba/F3) [µM]
O=C(Nc1nc2[nH]nc(-n3cncc3-c3ccccn3)c2s1)C1CC1 [Cyclopropanecarboxylic acid [3-(5-pyridin-2-yl-imidazol-1-yl)-1H-pyrazolo[3,4-d]thiazol-5-yl]-amide]	–	1 to 10
O=C(Nc1cc[nH]n1)Nc1nc2[nH]nc(-n3cncc3-c3ccccc3Cl)c2s1 [1-{3-[5-(2-Chloro-phenyl)-imidazol-1-yl]-1H-pyrazolo[3,4-d]thiazol-5-yl}-3-(1H-pyrazol-3-yl)-urea]	> 10	–
O=C(Nc1nc2[nH]nc(-n3cncc3-c3ccccc3)c2s1)C1CC1 [Cyclopropanecarboxylic acid [3-(5-phenyl-imidazol-1-yl)-1H-pyrazolo[3,4-d]thiazol-5-yl]-amide]	–	0.1 to 1
O=C(Nc1nc2[nH]nc(-n3cncc3-c3c(Cl)ccc(Cl)c3Cl)c2s1)C1CC1 [Cyclopropanecarboxylic acid {3-[5-(2,3,6-trichloro-phenyl)-imidazol-1-yl]-1H-pyrazolo[3,4-d]thiazol-5-yl}-amide]	–	0.1 to 1

Now from value to compound, other results behind:

IC50 (Met) [µM]	SMILES	GI50 (T315I Ba/F3) [µM]
1 to 10	O=C(Nc1nc2[nH]nc(-n3cncc3-c3c(Cl)cccc3Cl)c2s1)C1CC1 [Cyclopropanecarboxylic acid {3-[5-(2,6-dichloro-phenyl)-imidazol-1-yl]-1H-pyrazolo[3,4-d]thiazol-5-yl}-amide]	0.1 to 1
> 10	O=C(Nc1nc2[nH]nc(-n3cncc3-c3cccc(F)c3F)c2s1)C1CC1 [Cyclopropanecarboxylic acid {3-[5-(2,3-difluoro-phenyl)-imidazol-1-yl]-1H-pyrazolo[3,4-d]thiazol-5-yl}-amide]	0.1 to 1
1 to 10	O=C(Nc1nc2[nH]nc(-n3cncc3-c3ccccc3Cl)c2s1)C1CC1 [Cyclopropanecarboxylic acid {3-[5-(2-chloro-phenyl)-imidazol-1-yl]-1H-pyrazolo[3,4-d]thiazol-5-yl}-amide]	0.1 to 1
